Data set [1] deals with humans who suffer from rheumatic arthritis. The data set can be described thus: Efficacy in humans who suffer from rheumatic arthritis. The following applies: drug comprising an effective content. Type of data set: in vivo.
Data set [2] can be described thus: Solubility in water. The format is physicochemical. Conditions: for Solubility in water, result: water at 37° C., sampling 5 hours, UV detection. An excerpt:
Solubility in Water [table]

Data set [3] can be described thus: Stability of the first crystal modification on storage (X-ray diffraction pattern). Type of data set: physicochemical. The protocol: Stability of the First Crystal Modification Samples of The first crystal modification were prepared as in Example 1 and were stored at various temperatures at atmospheric humidity. After the stated times, samples were taken and an X-ray diffraction pattern was prepared as in Example 1. […] For preparing the calibration curve for the quantitative determination, the reflection at 2θ=8.35° was used for phase 1 and the reflection at 2θ=16.1° was used for phase 2. The ratios of the corresponding peak heights were calculated and were correlated with the contents of phase 2. The limit of the method is 0.3%. The sample after storage for 1 month at 60° C. contains about 76% of the second crystal modification according to this method.

Assay in data set [4]: as above
Type of data set: physicochemical. The following applies: +40° C./75% relative humidity.

Values after ≈ are worked out from the molar mass of the structure shown.

A word on the solubility: it is how much of the substance goes into solution per volume.

On to `Cc1oncc1C(=O)Nc1ccc(C(F)(F)F)cc1` [first crystal modification, N-(4-trifluoromethylphenyl)-5-methylisoxazole-4-carboxamide], for which the “efficacy in comparison with a drug comprising the second crystal modification” value in data set [1] was “same efficacy”. Moreover, the “Solubility in water, result” value in data set [2] was 38 mg dissolved in 1 liter of water at 37 °C. Also, in data set [2] (water, 37 °C, water, thermodynamic from solid, water, 37° C., read-out: water solubility (amount that can be dissolved)), the solubility was determined as 38 µg/mL (≈ 141 µM). Also, the Crystal modification result in data set [3] (1 month, +25° C.) is on record as “First”; in data set [3] (1 month, +40° C.), “First”; in data set [3] (1 month, −15° C.), “First”; in data set [3] (3 months, +25° C.), “First”; in data set [3] (3 months, +40° C.), “First”; in data set [3] (3 months, +60° C.), “Second”. The Crystal modification result in data set [3] (3 months, −15° C.) was “First”; in data set [3] (6 months, +25° C.), “First”; in data set [3] (6 months, +40° C.), “First”; in data set [3] (6 months, −15° C.), “First”; in data set [4] (1 month), “First”; in data set [4] (3 months) it was “First”. Besides, the Crystal modification result in data set [4] (6 months) was “First”. For the same compound, the “stability (not converted into the second crystal modification)” value in data set [3] (temperature range from −15° C. to +40° C.) was “stable”.
Regarding `Cc1oncc1C(=O)Nc1ccc(C(F)(F)F)cc1` [second crystal modification, N-(4-trifluoromethylphenyl)-5-methylisoxazole-4-carboxamide], in data set [2], the “Solubility in water, result” value is 25 mg dissolved in 1 liter of water at 37 °C. For the same compound, the “water solubility (amount that can be dissolved)” value in data set [2] (water, 37° C.) is 25 µg/mL (≈ 92.5 µM).

These data come from patent US6995272B2, “Crystal form of N-(4-trifluoromethylphenyl)-5-methylisoxazole-4-carboxamide” (Sanofi-Aventis Deutschland GmbH, priority 1997, dated 2006).
